# Laboratory results from ChEMBL document CHEMBL1201862, “PubChem BioAssay data set” (2004).
# Activity calls are given as the source filed them.
# Assays:
# Cytochrome P450 3A4 = Cytochrome P450 3A4 (Homo sapiens, UniProt P08684);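 also: CYP3A4 tested as one member of a cytochrome P450 panel screen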
# Cytochrome P450 1A2 = molecular target: T1, Cytochrome P450 1A2 (Homo sapiens, UniProt P05177);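 also: PubChem cytochrome P450 panel assay, CYP1A2 panel member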
# T1 sequence (P05177 whole entry): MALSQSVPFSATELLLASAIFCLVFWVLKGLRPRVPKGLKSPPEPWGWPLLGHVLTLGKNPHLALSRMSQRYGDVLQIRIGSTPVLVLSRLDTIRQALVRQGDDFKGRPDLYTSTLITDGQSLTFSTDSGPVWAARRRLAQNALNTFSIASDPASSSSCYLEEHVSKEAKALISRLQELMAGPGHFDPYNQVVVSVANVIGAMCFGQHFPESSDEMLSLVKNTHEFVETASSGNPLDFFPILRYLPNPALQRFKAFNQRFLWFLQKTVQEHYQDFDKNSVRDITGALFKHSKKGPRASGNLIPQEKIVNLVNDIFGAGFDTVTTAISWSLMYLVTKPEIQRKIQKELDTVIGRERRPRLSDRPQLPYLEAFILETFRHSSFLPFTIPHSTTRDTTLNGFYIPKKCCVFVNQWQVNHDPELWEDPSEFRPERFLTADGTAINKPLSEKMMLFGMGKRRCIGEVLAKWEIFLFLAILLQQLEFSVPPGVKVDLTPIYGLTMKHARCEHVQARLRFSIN
# Cytochrome P450 2D6 = Cytochrome P450 2D6 (Homo sapiens, UniProt P10635);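 also: CYP2D6 member of a cytochrome P450 panel assay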
# Fatty acid synthase [1] = molecular target: T2, Fatty acid synthase (Homo sapiens, UniProt P49327); experiment: inhibition of human FAS-TE enzyme activity – biochemical, endpoint fluorescence intensity, uHTS hits, dose response (AID 624327); format: functional;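 also: fluorescence from hydrolysis of an O-methyl fluorescein acyl ester substrate by the enzyme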
# Fatty acid synthase [2] = molecular target: T2, Fatty acid synthase; experiment: inhibition of human FAS-TE enzyme activity – biochemical, kinetic fluorescence intensity, dose response (AID 624326); format: functional;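 also: rate of fluorescence rise from hydrolysis of a fluorogenic O-methyl fluorescein ester substrate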
# Cytochrome P450 2C19 = Cytochrome P450 2C19 (Homo sapiens, UniProt P33261); experiment: Cytochrome panel assay with activity outcomes. Panel member name: p450-cyp2c19 Compounds with AC50 equal or less than 10 uM are considered active; format: functional; conditions: read-out: AC50
# [3] = viability of uninfected HEp-2 cells – cell-based, HTS, cytotoxicity control for RSV inhibitor project, dose response (AID 2410); format: functional; conditions: human respiratory syncytial virus
# [4] = NIH-3T3 fibroblast cytotoxicity, dose response, cytotoxicity control, cell-based, fluorescence, Alamar Blue, secondary assay (AID 2327); format: functional;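 also: NIH-3T3 mouse fibroblasts cultured with fluconazole at 8 µg/mL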
# [5] = fluconazole-exposed Candida albicans growth modulators – fluorescence, retest, confirmation (AID 2467); format: functional, cell-based
# Cytochrome P450 2C9 = Cytochrome P450 2C9 (Homo sapiens, UniProt P11712)
# Streptokinase A = molecular target: T3, Streptokinase A (Streptococcus pyogenes serotype M1, UniProt P10520); experiment: viability-normalized secreted streptokinase activity reduction – plasminogen activation absorbance, OD405, dose response (AID 1914); format: functional, Streptococcus pyogenes M1 GAS;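 also: secreted streptokinase activity via plasminogen activation per viability signal from cell pellet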
# T3 sequence (P10520 whole entry): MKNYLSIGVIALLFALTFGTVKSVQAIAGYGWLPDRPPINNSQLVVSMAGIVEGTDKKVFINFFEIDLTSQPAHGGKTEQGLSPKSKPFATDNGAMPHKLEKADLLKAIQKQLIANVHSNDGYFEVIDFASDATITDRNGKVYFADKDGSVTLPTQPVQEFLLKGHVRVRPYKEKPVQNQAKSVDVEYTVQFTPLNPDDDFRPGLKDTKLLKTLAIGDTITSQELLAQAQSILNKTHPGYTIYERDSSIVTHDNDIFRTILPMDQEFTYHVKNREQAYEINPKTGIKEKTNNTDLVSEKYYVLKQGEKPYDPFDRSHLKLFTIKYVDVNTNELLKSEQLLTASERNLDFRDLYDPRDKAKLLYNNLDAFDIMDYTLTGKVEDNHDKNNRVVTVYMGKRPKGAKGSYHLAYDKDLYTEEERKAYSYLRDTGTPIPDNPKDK
# [6] = tested on: Streptococcus sp. 'group A'; experiment: Streptococcus pyogenes SK(-)GAS viability under kanamycin – luminescence, BacTiterGlo, confirmation, counter-screen for streptokinase expression inhibitor project, dose response (AID 1900); format: functional, organism-based
# Streptococcus = experiment: GAS UMAA2166 growth inhibition – luminescence, BacTiterGlo, counter-screen for streptokinase expression inhibitor project, dose response (AID 1915); format: functional, organism-based;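 also: potency for reduction of bacterial viability or growth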
# Sequence of Cytochrome P450 3A4 (P08684 whole entry): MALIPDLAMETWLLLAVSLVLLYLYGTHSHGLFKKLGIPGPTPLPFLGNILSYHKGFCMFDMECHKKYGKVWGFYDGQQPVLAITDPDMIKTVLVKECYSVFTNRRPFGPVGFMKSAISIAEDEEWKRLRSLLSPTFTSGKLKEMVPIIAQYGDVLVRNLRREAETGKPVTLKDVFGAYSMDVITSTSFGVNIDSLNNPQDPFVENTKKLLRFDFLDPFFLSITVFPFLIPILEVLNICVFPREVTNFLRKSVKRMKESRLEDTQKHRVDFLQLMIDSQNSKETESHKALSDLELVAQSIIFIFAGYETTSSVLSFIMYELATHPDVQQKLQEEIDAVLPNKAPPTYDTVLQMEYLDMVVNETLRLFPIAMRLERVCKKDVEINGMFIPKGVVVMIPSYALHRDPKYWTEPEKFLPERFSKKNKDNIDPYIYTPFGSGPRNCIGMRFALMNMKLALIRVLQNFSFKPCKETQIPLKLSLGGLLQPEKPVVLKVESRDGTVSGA
# T2 sequence (P49327 whole entry): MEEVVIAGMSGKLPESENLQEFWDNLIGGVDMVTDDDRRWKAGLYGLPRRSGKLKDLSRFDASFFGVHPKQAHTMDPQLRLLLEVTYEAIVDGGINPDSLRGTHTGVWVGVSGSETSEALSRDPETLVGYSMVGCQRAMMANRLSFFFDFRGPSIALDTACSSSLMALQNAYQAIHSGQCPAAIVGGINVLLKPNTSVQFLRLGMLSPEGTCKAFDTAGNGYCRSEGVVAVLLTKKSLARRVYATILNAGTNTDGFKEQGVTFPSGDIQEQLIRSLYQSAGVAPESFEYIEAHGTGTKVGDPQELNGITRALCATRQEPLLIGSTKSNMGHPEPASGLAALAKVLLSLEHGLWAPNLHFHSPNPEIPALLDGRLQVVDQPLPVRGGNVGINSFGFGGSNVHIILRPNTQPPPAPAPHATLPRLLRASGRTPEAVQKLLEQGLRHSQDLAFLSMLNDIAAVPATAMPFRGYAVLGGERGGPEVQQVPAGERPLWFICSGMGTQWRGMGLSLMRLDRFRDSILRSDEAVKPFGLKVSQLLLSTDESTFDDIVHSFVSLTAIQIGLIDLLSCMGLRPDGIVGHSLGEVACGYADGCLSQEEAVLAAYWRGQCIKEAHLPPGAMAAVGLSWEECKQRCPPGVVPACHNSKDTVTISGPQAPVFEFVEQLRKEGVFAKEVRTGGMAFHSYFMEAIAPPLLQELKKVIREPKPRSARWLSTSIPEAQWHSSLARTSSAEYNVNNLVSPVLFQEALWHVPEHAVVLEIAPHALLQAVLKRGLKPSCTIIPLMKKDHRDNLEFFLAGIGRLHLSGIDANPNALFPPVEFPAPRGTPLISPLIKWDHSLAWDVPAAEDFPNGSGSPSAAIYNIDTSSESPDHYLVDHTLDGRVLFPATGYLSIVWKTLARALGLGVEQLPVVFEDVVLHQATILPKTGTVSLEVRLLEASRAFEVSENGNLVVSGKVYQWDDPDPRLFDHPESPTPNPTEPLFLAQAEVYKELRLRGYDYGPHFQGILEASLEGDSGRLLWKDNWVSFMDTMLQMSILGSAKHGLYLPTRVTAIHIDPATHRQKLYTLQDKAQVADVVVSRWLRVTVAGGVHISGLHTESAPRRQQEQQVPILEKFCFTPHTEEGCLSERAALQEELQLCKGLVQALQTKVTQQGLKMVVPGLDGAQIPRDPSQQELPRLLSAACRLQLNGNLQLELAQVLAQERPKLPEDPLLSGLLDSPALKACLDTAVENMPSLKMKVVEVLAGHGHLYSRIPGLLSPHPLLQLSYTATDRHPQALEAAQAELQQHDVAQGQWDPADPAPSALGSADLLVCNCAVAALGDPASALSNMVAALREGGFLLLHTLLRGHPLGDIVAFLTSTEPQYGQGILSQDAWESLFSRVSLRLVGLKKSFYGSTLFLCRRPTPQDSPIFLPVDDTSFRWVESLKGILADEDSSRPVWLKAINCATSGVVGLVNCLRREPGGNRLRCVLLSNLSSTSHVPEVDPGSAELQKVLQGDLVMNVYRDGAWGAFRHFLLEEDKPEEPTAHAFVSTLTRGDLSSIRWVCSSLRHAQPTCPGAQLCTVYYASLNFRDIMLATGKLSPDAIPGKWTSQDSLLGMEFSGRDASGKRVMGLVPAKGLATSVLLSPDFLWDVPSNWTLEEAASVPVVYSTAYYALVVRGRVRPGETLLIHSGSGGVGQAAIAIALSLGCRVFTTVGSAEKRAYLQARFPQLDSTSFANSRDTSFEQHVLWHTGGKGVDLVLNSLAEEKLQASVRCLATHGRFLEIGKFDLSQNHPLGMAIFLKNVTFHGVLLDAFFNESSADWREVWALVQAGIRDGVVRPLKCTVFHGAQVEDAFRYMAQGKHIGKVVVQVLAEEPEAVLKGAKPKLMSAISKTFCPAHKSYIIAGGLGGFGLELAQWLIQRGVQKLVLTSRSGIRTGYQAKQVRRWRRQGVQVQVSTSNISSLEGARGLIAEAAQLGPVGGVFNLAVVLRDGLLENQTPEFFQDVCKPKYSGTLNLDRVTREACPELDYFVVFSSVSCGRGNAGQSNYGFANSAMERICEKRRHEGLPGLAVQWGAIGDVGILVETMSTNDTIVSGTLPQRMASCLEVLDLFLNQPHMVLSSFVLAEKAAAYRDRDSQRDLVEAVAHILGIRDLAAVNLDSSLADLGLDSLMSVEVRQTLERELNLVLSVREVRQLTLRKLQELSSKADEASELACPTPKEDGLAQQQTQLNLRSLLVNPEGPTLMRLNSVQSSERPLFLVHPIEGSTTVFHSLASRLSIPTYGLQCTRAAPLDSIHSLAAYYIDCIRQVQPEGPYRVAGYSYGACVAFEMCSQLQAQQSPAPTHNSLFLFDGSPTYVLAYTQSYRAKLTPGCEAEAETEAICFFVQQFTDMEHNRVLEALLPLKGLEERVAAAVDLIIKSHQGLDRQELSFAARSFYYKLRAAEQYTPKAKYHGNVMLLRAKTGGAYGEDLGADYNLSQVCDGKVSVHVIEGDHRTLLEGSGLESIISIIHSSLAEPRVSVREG
# Sequence of Cytochrome P450 2C19 (P33261 whole entry): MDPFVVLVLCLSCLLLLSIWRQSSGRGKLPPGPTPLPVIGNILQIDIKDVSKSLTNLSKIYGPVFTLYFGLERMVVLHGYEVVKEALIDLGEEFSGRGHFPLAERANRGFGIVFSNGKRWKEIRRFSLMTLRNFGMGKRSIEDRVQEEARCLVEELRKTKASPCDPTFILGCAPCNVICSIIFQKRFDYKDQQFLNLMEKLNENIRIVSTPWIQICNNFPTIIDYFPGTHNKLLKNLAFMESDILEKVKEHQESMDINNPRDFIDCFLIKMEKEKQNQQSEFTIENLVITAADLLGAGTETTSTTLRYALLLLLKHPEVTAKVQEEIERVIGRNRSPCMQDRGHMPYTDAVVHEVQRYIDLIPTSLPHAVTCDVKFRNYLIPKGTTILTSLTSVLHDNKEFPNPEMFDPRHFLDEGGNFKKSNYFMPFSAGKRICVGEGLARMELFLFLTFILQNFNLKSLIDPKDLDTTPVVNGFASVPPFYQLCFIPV
# Sequence of Cytochrome P450 2D6 (P10635 whole entry): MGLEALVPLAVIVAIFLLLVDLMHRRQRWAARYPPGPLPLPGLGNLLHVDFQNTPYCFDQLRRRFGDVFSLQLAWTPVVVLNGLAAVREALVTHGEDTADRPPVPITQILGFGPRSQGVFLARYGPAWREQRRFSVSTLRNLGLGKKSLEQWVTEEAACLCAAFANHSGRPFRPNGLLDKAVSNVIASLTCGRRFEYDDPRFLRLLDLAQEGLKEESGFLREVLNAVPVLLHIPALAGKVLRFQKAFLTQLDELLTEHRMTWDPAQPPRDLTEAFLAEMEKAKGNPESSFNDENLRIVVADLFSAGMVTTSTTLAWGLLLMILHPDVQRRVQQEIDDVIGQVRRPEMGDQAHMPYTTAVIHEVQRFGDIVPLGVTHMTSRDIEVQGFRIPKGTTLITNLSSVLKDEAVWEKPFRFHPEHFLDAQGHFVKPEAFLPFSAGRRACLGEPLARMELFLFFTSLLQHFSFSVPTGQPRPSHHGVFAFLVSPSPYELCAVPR
# Sequence of Cytochrome P450 2C9 (P11712 whole entry): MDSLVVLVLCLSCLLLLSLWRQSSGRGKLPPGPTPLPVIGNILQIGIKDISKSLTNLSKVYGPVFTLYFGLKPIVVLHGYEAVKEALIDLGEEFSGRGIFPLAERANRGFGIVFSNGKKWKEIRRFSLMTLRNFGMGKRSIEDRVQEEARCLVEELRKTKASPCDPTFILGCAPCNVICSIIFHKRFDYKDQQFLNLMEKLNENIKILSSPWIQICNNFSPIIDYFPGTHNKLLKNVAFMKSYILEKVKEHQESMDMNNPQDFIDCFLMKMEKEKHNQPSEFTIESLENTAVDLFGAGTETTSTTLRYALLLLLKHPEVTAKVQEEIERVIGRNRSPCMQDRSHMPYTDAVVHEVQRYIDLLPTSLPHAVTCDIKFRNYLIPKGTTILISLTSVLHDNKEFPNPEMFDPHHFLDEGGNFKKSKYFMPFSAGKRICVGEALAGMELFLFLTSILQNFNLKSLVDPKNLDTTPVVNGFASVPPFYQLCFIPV
Compound,AC50 (Cytochrome P450 3A4),IC50 (Fatty acid synthase [1]),IC50 (Fatty acid synthase [2]),also measured
CC(C)CC(C(=O)OCC(=O)Nc1ncc(Cl)cc1Cl)N1C(=O)c2ccccc2C1=O (centres undefined),31.6 µM (inconclusive),,,AC50 (Cytochrome P450 1A2): 11.2 µM (inconclusive)
C[C@H](CN(C)C)C(C#N)(c1ccccc1)c1ccccc1,3.98 µM (inconclusive),,,AC50 (Cytochrome P450 2D6): 3.16 µM (inconclusive)
O=C(/C=C/c1cccc([N+](=O)[O-])c1)N1CCN(c2ccc(F)cc2)CC1,,2.32 µM (active),4.93 µM (active),
COc1ccc(-c2cc(C(=O)Nc3cc(OC)c(OC)c(OC)c3)no2)cc1OC,10 µM (inconclusive),,,AC50 (Cytochrome P450 2C19): 39.8 µM (inconclusive)
O=[N+]([O-])c1ccc(Cl)c(S(=O)(=O)Nc2ccc(-c3ccc(N4CCCC4)nn3)cc2)c1,,8.93 µM (active),11.3 µM (active),
CC1CCc2c(C(=O)Oc3cccc(-n4cnnn4)c3)csc2C1 (centres undefined),,1.71 µM (active),1.36 µM (active),
COc1ccc(NC(=O)NCc2cccn2C)c(OC)c1,22.4 µM (inconclusive),,,AC50 (Cytochrome P450 2D6): 0.501 µM (inconclusive)
O=C(COc1ccc2ccccc2c1)N1c2ccccc2Sc2ccccc21,,,,CC50 [3]: 26.8 µM (active)
CCCNC(=O)C12CCC(C)(c3nc4cc(C)c(C)cc4nc31)C2(C)C (centres undefined),,,,EC50 [4]: 113 µM (active)
O=S(=O)(Nc1nc(-c2ccccc2)cs1)c1cc(Cl)ccc1Cl,,,,EC50 [4]: > 160 µM (inactive); EC50 [5]: 1.8 µM (active)
Fc1ccc(C2CC(c3ccco3)=NN2c2ccccc2)cc1 (centres undefined),0.0251 µM (inconclusive),,,
O=c1c(-c2ccccc2)nc2cnc(N3CCOCC3)nc2n1C[C@H]1CCCO1,39.8 µM (inconclusive),,,
O=C(NCCC1=CCCCC1)c1ccc(Cl)c([N+](=O)[O-])c1,,11.7 µM (active),9.92 µM (active),
COc1ccc(-c2nc(C#N)c(N3CCC(C(N)=O)CC3)o2)cc1OC,39.8 µM (inconclusive),,,AC50 (Cytochrome P450 2C19): 22.4 µM (inconclusive); AC50 (Cytochrome P450 1A2): 12.6 µM (inconclusive)
CSc1nc(C)cc(SC(C(C)=O)C(=O)Nc2ccccc2)n1 (centres undefined),14.1 µM (inconclusive),,,AC50 (Cytochrome P450 2C9): 1.58 µM (inconclusive); AC50 (Cytochrome P450 1A2): 15.8 µM (inconclusive)
CC(C)(C)N1C(=O)[C@H]2[C@@H](c3ccc(Br)cc3)N3C(=O)N(c4cccc(F)c4)C(=O)[C@@]3(Cc3ccccc3)[C@H]2C1=O,,19.8 µM (active),10.8 µM (active),
CC(=O)c1cccc(-c2ccnc3c2CC(C(=O)Nc2cccc(OC(F)(F)F)c2)O3)c1 (centres undefined),,9.72 µM (active),6.27 µM (active),
Cc1noc(C)c1NC(=O)Nc1cccc2c1O[C@H](CN(C)C(=O)NC1CCCCC1)[C@@H](C)CN([C@H](C)CO)C2=O,,2.47 µM (active),4.3 µM (active),
O=C(CC1C[C@H](C(=O)N2CCOCC2)[C@@]2(CCC3CCCC3)c3[nH]c4ccccc4c3CCN2C1=O)NCc1cccc(C(F)(F)F)c1 (some centres undefined),,4.98 µM (active),8.04 µM (active),
Cc1ccc(-c2nn(-c3ccccc3)cc2/C=N/O)cc1,,,,EC50 (Streptokinase A): > 150 µM (not active); EC50 [6]: > 150 µM (not active); EC50 (Streptococcus): > 150 µM (not active); CC50 [3]: 27.9 µM (active)
C/C(=N\NC(=O)COc1ccc(C)cc1C(C)C)c1ccc(-n2ccnc2)cc1,,,,CC50 [3]: 24.3 µM (active)
CCCCC(=O)N/N=C/c1cc([N+](=O)[O-])ccc1N1CCOCC1,,4.56 µM (active),4.13 µM (active),
COC(=O)c1ccc(/C=N\NC(=O)c2ccc(C)cc2Cl)cc1,,,,AC50 (Cytochrome P450 1A2): 10 µM (inconclusive)
